Measured values as given in US20150344540A1, “NOVEL GLP-1 RECEPTOR AGONISTS WITH CHOLESTEROL EFFLUX ACTIVITY” (NOVO NORDISK A/S, priority 2012, published 2015).

Columns and labels:
[1] = Physical stability assay, dynamic light scattering; assay type: physicochemical
Description: Physical stability can be assessed by dynamic and static light scattering. In dynamic light scattering, microsecond fluctuations in scattered laser light incident on a aqueous sample is detected and transformed into diffusion coefficients (Df) of the individual species via the so-called autocorrelation function. For convenience, the diffusion coefficients are typically reported in hydrodynamic radii (Rh) assuming the sample to consist of spherical species. Furthermore, from the radii, an empirical estimate of the molecular weight is obtained. Dynamic light scattering is extremely sensitive and can resolve very small amounts of aggregated species that are undesirable in pharmaceutical formulations. The average, static intensity recorded by the detector also serves as an overall measure of the physical stability of the sample as development of larger species increase the scattered intensity drastically. In order to measure the physical stability of peptides, DLS was applied to aqueous solutions of peptides. Measurements were performed on a Wyatt (Santa Barbara, Calif.) DynaPro DLS plate reader at 25° C., and samples were kept at 37° C. between measurements. Samples were measured for up to two weeks. Measurements were performed in […] triplicate in Corning 3540 384-well microtiter plates (Corning, N.Y.) sealed with transparent plastic foil (Thermo Fischer Scientific, Waltham, Mass.) with twenty 10-second acquisitions per measurement. Autocorrelation curves were fitted with a regularization fit in Dynamics 7.1.7.16 and the resulting diffusion coefficients were transformed into hydrodynamic radii and molecular mass assuming a spherical shape (Table 2). Normalized intensities are reported as is.
Judging from the autocorrelation functions and the normalized static intensity, only minute amounts of aggregate were present at any time independent of sample concentration.

[2] = Pharmacokinetics in normal mice after i.v. and s.c. administration; assay type: in vivo, female C57B1/6J mice
Description: The mice, 60 female C57B1/6J were purchased from Taconic, arriving at Novo Nordisk A/S Animal Unit at 6-7 weeks of age. The mice were housed according to standard rules in the animal unit and given free access to standard chow and tap water. The animals were kept at a room temperature and housed in groups of 8 mice, with free access to food and water, according to Animal Unit's SOP (Housing of experimental animals at Novo Nordisk A/S).
Peptide is administered as a single dose either s.c. or i.v.
After the 2nd sample the mice were sacrificed. The plasma concentrations of the compounds with intact N-terminus were determined using a Luminescence Oxygen Chanelling Immuno-assay (LOCI). The donor beads were coated with streptavidin, while acceptor beads were conjugated with a monoclonal antibody recognizing a mid-/C-terminal epitope of the peptide. The other monoclonal antibody, specific for the N-terminus, was biotinylated. The three reactants were combined with the analyte and formed a two-sited immuno-complex. Illumination of the complex released singlet oxygen atoms from the donor beads, which were channeled into the acceptor beads and triggered chemiluminescence which was measured in an Envision plate reader. The amount of light was proportional to the concentration of the compound.

[3] = female, C57B1/6J, mouse, plasma, sc

CC[C@H](C)[C@H](NC(=O)[C@H](Cc1ccccc1)NC(=O)[C@H](CCC(=O)O)NC(=O)[C@H](CCCCN)NC(=O)[C@@H](NC(=O)[C@H](C)NC(=O)[C@H](CCC(=O)O)NC(=O)CNC(=O)[C@H](CCC(=O)O)NC(=O)[C@H](CC(C)C)NC(=O)[C@H](Cc1ccc(O)cc1)NC(=O)[C@H](CO)NC(=O)[C@H](CO)NC(=O)[C@@H](NC(=O)[C@H](CC(=O)O)NC(=O)[C@H](CO)NC(=O)[C@@H](NC(=O)[C@H](Cc1ccccc1)NC(=O)[C@@H](NC(=O)CNC(=O)[C@H](CCC(=O)O)NC(=O)C(C)(C)NC(=O)[C@@H](N)Cc1c[nH]cn1)[C@@H](C)O)[C@@H](C)O)C(C)C)C(C)C)C(=O)N[C@@H](C)C(=O)N[C@@H](Cc1c[nH]c2ccccc12)C(=O)N[C@@H](CC(C)C)C(=O)N[C@H](C(=O)N[C@@H](CCC(=O)O)C(=O)N[C@@H](CCCCN)C(=O)NC(C)(C)C(=O)N[C@@H](CCCCN)C(=O)N[C@@H](CCC(=O)O)C(=O)N[C@@H](Cc1ccccc1)C(=O)N[C@@H](CC(C)C)C(N)=O)C(C)C [Compound 1, [Aib8,Glu23,Val25,Glu34,Lys35,Aib36,Lys37]-GLP-1-(7-37)-peptidyl-Glu-Phe-Leu amide]
Inorm avg. ([1]; 0.9 mg/mL, 37° C., t 0 days): 1.15E+06 kcts
Rh avg. ([1]; 0.9 mg/mL, 37° C., t 0 days): 2.32 nm
Inorm avg. ([1]; 0.9 mg/mL, 37° C., t 1 days): 1.48E+06 kcts
Rh avg. ([1]; 0.9 mg/mL, 37° C., t 1 days): 2.31 nm
Inorm avg. ([1]; 0.9 mg/mL, 37° C., t 4 days): 3.76E+06 kcts
Rh avg. ([1]; 0.9 mg/mL, 37° C., t 4 days): 1.94 nm
Inorm avg. ([1]; 0.9 mg/mL, 37° C., t 8 days): 1.27E+06 kcts
Rh avg. ([1]; 0.9 mg/mL, 37° C., t 8 days): 2.26 nm
Inorm avg. ([1]; 0.9 mg/mL, 37° C., t 13 days): 2.25E+06 kcts
Rh avg. ([1]; 0.9 mg/mL, 37° C., t 13 days): 2.44 nm
oligomer size (molecular weight consistent with number of monomers) ([1]; 20 mM phosphate pH 7.5 buffer, 0.9 mg/mL or 45.5 mg/mL): approximately 4 monomers
oligomer stability by DLS ([1]; 20 mM phosphate pH 7.5 buffer, 0.9 mg/mL or 45.5 mg/mL, 37° C., up to two weeks): remained stable throughout the sample period
Inorm avg. ([1]; 45.5 mg/mL, 37° C., t 0 days): 8.33E+06 kcts
Rh avg. ([1]; 45.5 mg/mL, 37° C., t 0 days): 2.13 nm
Inorm avg. ([1]; 45.5 mg/mL, 37° C., t 1 days): 9.29E+06 kcts
Rh avg. ([1]; 45.5 mg/mL, 37° C., t 1 days): 2.27 nm
Inorm avg. ([1]; 45.5 mg/mL, 37° C., t 4 days): 1.04E+07 kcts
Rh avg. ([1]; 45.5 mg/mL, 37° C., t 4 days): 2.27 nm
Inorm avg. ([1]; 45.5 mg/mL, 37° C., t 6 days): 6.55E+06 kcts
Rh avg. ([1]; 45.5 mg/mL, 37° C., t 6 days): 2.35 nm
Inorm avg. ([1]; 45.5 mg/mL, 37° C., t 14 days): 7.18E+06 kcts
Rh avg. ([1]; 45.5 mg/mL, 37° C., t 14 days): 2.28 nm
half-life ([2]; female, C57B1/6J, mouse, plasma, iv): 6.7 h
Vd ([2]; female, C57B1/6J, mouse, plasma, iv, read-out: Volume of distribution): 0.0456 L/kg
Tmax [2, 3]: 4 h
half-life [2, 3]: 11.5 h
clearance ([2]; mice, i.v., Compound 1 dose 99 nmol/kg, Compound 5 dose 135 nmol/kg): 4.69 mL/h/kg
Volume of distribution ([2]; mice, s.c., Compound 1 dose 323 nmol/kg, Compound 5 dose 62 nmol/kg): 0.1592 L/kg
